For seven compounds, EC50 results are on record in BindingDB's records for doi:10.7270/Q24M9315 (The Scripps Research Institute Molecular Screening Center, 2011).

Molecules are shown by their SMILES.

A word on the EC50: it is the concentration that produces a half-maximal response.

For this test, the target named is T1, Caspase-3 (Homo sapiens, UniProt P42574).
T1 sequence (P42574 whole entry): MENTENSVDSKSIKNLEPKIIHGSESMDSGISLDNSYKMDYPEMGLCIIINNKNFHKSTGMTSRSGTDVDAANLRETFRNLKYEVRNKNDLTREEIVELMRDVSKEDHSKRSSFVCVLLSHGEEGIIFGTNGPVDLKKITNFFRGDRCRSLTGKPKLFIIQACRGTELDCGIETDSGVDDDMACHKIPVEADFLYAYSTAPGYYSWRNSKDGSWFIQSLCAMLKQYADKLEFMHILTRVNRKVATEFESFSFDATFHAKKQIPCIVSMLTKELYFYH
Briefly: procaspase-3 activation potency of dual hits, dose response, counter-screen for dual procaspase-3/7 activator project, biochemical, absorbance, PC-3 D3A mutant (AID 504328). Background: Counterscreens check selectivity or assay interference.
Compound `CCOc1ccc(NC=C2C(=O)CC(c3ccco3)CC2=O)cc1` (configuration not stated) [SMR000268302] registered an EC50 above 85.3 µM.

In turn, `COC(=O)c1[nH]n(-c2ccc(Cl)cc2)c2c(O)n(-c3ccccc3OC)c(=O)c1-2` [1-(4-Chloro-phenyl)-5-(2-methoxy-phenyl)-4,6-dioxo-1,3a,4,5,6,6a-hexahydro-pyrrolo[3,4-c]pyrazole-3-carboxylic acid methyl ester] yielded an EC50 above 85.3 µM.

As for `COc1ccccc1-n1c(O)c2n(-c3ccccc3)[nH]c(C(=O)c3ccccc3)c-2c1=O`, the concentration for a half-maximal effect (EC50) is above 85.3 µM.

`O=C(c1ccccc1)c1[nH]n(-c2ccccc2)c2c(O)n(-c3ccccc3)c(=O)c1-2` [3-benzoyl-1,5-diphenyl-3a,6a-dihydropyrrolo[3,4-c]pyrazole-4,6-dione] had an EC50 above 85.3 µM.

Compound `C=CC=Nc1c(Cl)c(O)n(-c2cccc(Cl)c2Cl)c1O` [MLS000533809] returned an EC50 above 85.3 µM.

For the compound `Cc1[nH]nc2c1C(c1c[nH]c3ccccc13)C(C#N)C(=N)O2` (configuration not stated) [MLS001030009], the EC50 is 23.1 µM.

Regarding `CCOC(=O)C(C#N)C=Nc1cc(OC)ccc1OC` (configuration not stated) [(E)-2-Cyano-3-(2,5-dimethoxy-phenylamino)-acrylic acid ethyl ester], the EC50 is above 85.3 µM.
